The record followed here is PMC3686551 (Tuberculosis (Edinburgh, Scotland), 2013).

A value given as a limit tells only on which side of the number the result lay.

This test deals with Mtb FtsZ (Mycobacterium tuberculosis, UniProt P9WN95). Nature of the test: FtsZ polymerization inhibition. The test is classed as biochemical.
Sequence of Mtb FtsZ (P9WN95 whole entry): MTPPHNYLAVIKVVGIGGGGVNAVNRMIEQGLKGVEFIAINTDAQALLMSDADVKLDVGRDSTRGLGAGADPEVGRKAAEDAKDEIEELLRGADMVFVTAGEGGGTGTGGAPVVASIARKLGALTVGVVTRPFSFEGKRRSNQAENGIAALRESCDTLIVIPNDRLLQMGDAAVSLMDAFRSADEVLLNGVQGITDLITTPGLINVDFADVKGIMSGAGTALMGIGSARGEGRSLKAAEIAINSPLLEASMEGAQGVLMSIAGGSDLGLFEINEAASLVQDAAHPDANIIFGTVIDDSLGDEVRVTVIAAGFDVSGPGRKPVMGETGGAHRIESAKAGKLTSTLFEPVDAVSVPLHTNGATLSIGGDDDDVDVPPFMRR

By IC50 is commonly meant the point on the concentration scale where inhibition reaches its midpoint. Low readings indicate greater potency, high ones weaker potency. For `CCCOc1ccc(N(C)c2cc(C)nc3ccc(Cl)cc23)cc1` [compound 3], the IC50 is above 100 µM.
